The numbers were not newly measured in patent US9857354B2, “Compositions and methods for prognosis and treatment of neoplasm” (NOVAZOI THERANOSTICS, INC., priority 2014, dated 2018), which cites them from elsewhere.

Data set [1] concerns the target T1, KIFC1/microtubule (MT) binary complex (Homo sapiens, UniProt Q9BW19).
T1 sequence (Q9BW19 1-673): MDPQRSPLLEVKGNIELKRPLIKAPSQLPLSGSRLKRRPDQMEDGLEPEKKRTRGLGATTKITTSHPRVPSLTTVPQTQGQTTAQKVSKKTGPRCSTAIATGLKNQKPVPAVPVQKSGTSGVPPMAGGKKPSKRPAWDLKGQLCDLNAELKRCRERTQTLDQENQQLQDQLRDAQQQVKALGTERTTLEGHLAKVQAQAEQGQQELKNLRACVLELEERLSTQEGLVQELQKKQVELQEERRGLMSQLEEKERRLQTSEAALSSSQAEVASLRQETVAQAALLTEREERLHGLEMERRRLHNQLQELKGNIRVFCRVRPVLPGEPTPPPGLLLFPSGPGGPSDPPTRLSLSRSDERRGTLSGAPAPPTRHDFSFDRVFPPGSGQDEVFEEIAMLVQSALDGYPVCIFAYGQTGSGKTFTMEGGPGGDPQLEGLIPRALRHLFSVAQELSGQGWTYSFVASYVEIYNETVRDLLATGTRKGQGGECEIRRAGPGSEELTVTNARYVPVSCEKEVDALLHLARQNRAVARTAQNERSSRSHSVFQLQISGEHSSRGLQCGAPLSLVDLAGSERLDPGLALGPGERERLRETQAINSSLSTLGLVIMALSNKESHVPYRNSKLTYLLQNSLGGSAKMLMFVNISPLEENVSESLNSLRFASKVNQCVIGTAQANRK
The following applies: ATP-competitive and MT-noncompetitive; read-out: Ki, inhibition of MT-stimulated KIFC1 enzymatic activity.

Data set [2] has as its system BT-549 breast cancer cells. The conditions noted are these: BT-549 breast cancer cells with amplified centrosomes.

As for `CCCc1cc(C(=O)N[C@H](Cc2ccc(-c3cccc(OC(F)(F)F)c3)nc2)C(=O)N[C@@H]2CCNC2)sc1C` [AZ82], the Ki (as a rule, the equilibrium dissociation constant of an inhibitor or competing ligand from its target) in data set [1] was 43 nM. In addition, the centrosome declustering entry in data set [2] is on record as “causes centrosome declustering”.
